Test results published in patent US5262417A, “Antibacterial quinolone compounds” (The Upjohn Company, priority 1991, dated 1993).
In brackets after ≈: the same amount, converted by molar mass. Like-named read-outs stand apart in the source and are kept apart here.

Columns and labels:
Experiment in all cases: Minimum inhibitory concentration (MIC) by agar dilution
Assay type in all cases: cell-based
Klebsiella pneumoniae = conditions: 20 h, read-out: MINIMUM INHIBITORY CONCENTRATION
Experimental: (§1) The antibacterial activity of the compounds of Formula IC was determined by using standard testing procedures such as the determination of minimum inhibitory concentration (MIC) by agar dilution as described in "Methods for Dilution Antimicrobial Susceptibility Tests for Bacteria That Grow Aerobically" (MFT) published January 1983 by the National Committee for Clinical Laboratory Standards, 771 East Lancaster Avenue, Villanova, Pa. 19084, USA. Briefly, MIC values are determined in unsupplemented Mueller Hinton Agar (MHA). The compounds tested are diluted serially into molten MHA at 47° C. The agar is poured into petri dishes and allowed to harden. The various bacteria used for testing are grown overnight on MHA at 35° C. and transferred to Trypticase soy broth (TSB) until a turbidity of 0.5 McFarland standard is obtained. The bacteria are diluted one to 20 in TSB and inoculated on the plates (1 μl using a Steers replicator).
as §1, with “Compounds of this invention can also be tested for in vitro antimicrobial” for “The antibacterial”, “activity” for “activity of the compounds of Formula IC was determined by”, “Jan.” for “January”, “Penna.” for “Pa.”, “(1μl” for “(1 μl”, “replicator). […] The MIC test results of selected of Formula B compounds of this invention are found in Tables B2-B9.” for “replicator).”

[1] = test system: Acinetobacter calcoaceticus; conditions: Acinetobacter calcoaceticus, 20 h, read-out: MINIMUM INHIBITORY CONCENTRATION, Cult No. 12170, MHA
Experimental: as §1
as §1, with “Compounds of this invention can also be tested for in vitro antimicrobial” for “The antibacterial”, “activity” for “activity of the compounds of Formula IC was determined by”, “Jan.” for “January”, “Penna.” for “Pa.”, “(1μl” for “(1 μl”, “replicator). […] The MIC test results of selected of Formula B compounds of this invention are found in Tables B2-B9.” for “replicator).”

Pseudomonas aeruginosa = conditions: Pseudomonas aeruginosa, 20 h
Experimental: as §1
as §1, with “Compounds of this invention can also be tested for in vitro antimicrobial” for “The antibacterial”, “activity” for “activity of the compounds of Formula IC was determined by”, “Jan.” for “January”, “Penna.” for “Pa.”, “(1μl” for “(1 μl”, “replicator). […] The MIC test results of selected of Formula B compounds of this invention are found in Tables B2-B9.” for “replicator).”

Citerobacter freundii = conditions: 20 h, read-out: MINIMUM INHIBITORY CONCENTRATION
Experimental: as §1
as §1, with “Compounds of this invention can also be tested for in vitro antimicrobial” for “The antibacterial”, “activity” for “activity of the compounds of Formula IC was determined by”, “Jan.” for “January”, “Penna.” for “Pa.”, “(1μl” for “(1 μl”, “replicator). […] The MIC test results of selected of Formula B compounds of this invention are found in Tables B2-B9.” for “replicator).”

[2] = test system: Staphylococcus epidermidis; conditions: 20 h, read-out: MINIMUM INHIBITORY CONCENTRATION
Experimental: as §1
as §1, with “Compounds of this invention can also be tested for in vitro antimicrobial” for “The antibacterial”, “activity” for “activity of the compounds of Formula IC was determined by”, “Jan.” for “January”, “Penna.” for “Pa.”, “(1μl” for “(1 μl”, “replicator). […] The MIC test results of selected of Formula B compounds of this invention are found in Tables B2-B9.” for “replicator).”

Escherichia coli = conditions: Escherichia coli, 20 h
Experimental: as §1
as §1, with “Compounds of this invention can also be tested for in vitro antimicrobial” for “The antibacterial”, “activity” for “activity of the compounds of Formula IC was determined by”, “Jan.” for “January”, “Penna.” for “Pa.”, “(1μl” for “(1 μl”, “replicator). […] The MIC test results of selected of Formula B compounds of this invention are found in Tables B2-B9.” for “replicator).”

Proteus penneri = conditions: Proteus penneri, 20 h, read-out: MINIMUM INHIBITORY CONCENTRATION, Cult No. 9679, MHA
Experimental: as §1
as §1, with “Compounds of this invention can also be tested for in vitro antimicrobial” for “The antibacterial”, “activity” for “activity of the compounds of Formula IC was determined by”, “Jan.” for “January”, “Penna.” for “Pa.”, “(1μl” for “(1 μl”, “replicator). […] The MIC test results of selected of Formula B compounds of this invention are found in Tables B2-B9.” for “replicator).”

Streptococcus faecalis = conditions: Enterococcus faecalis, 20 h, read-out: MINIMUM INHIBITORY CONCENTRATION
Experimental: as §1
as §1, with “Compounds of this invention can also be tested for in vitro antimicrobial” for “The antibacterial”, “activity” for “activity of the compounds of Formula IC was determined by”, “Jan.” for “January”, “Penna.” for “Pa.”, “(1μl” for “(1 μl”, “replicator). […] The MIC test results of selected of Formula B compounds of this invention are found in Tables B2-B9.” for “replicator).”

Serratia marcescens = conditions: 20 h, read-out: MINIMUM INHIBITORY CONCENTRATION
Experimental: as §1
as §1, with “Compounds of this invention can also be tested for in vitro antimicrobial” for “The antibacterial”, “activity” for “activity of the compounds of Formula IC was determined by”, “Jan.” for “January”, “Penna.” for “Pa.”, “(1μl” for “(1 μl”, “replicator). […] The MIC test results of selected of Formula B compounds of this invention are found in Tables B2-B9.” for “replicator).”

Staphylococcus aureus = conditions: Staphylococcus aureus, 20 h
Experimental: as §1
as §1, with “Compounds of this invention can also be tested for in vitro antimicrobial” for “The antibacterial”, “activity” for “activity of the compounds of Formula IC was determined by”, “Jan.” for “January”, “Penna.” for “Pa.”, “(1μl” for “(1 μl”, “replicator). […] The MIC test results of selected of Formula B compounds of this invention are found in Tables B2-B9.” for “replicator).”

Streptococcus pyogenes = conditions: Streptococcus pyogenes, 20 h, read-out: MINIMUM INHIBITORY CONCENTRATION, Cult No. 152, MHA
Experimental: as §1
as §1, with “Compounds of this invention can also be tested for in vitro antimicrobial” for “The antibacterial”, “activity” for “activity of the compounds of Formula IC was determined by”, “Jan.” for “January”, “Penna.” for “Pa.”, “(1μl” for “(1 μl”, “replicator). […] The MIC test results of selected of Formula B compounds of this invention are found in Tables B2-B9.” for “replicator).”

Streptococcus pneumoniae = conditions: Streptococcus pneumoniae, 20 h, read-out: MINIMUM INHIBITORY CONCENTRATION, Cult No. 41, MHA
Experimental: as §1
as §1, with “Compounds of this invention can also be tested for in vitro antimicrobial” for “The antibacterial”, “activity” for “activity of the compounds of Formula IC was determined by”, “Jan.” for “January”, “Penna.” for “Pa.”, “(1μl” for “(1 μl”, “replicator). […] The MIC test results of selected of Formula B compounds of this invention are found in Tables B2-B9.” for “replicator).”

Enterobacter cloacae = conditions: 20 h, read-out: MINIMUM INHIBITORY CONCENTRATION
Experimental: Briefly, MIC values are determined in unsupplemented Mueller Hinton Agar (MHA). The compounds tested are diluted serially into molten MHA at 47° C. The agar is poured into petri dishes and allowed to harden. The various bacteria used for testing are grown overnight on MHA at 35° C. and transferred to Trypticase soy broth (TSB) until a turbidity of 0.5 McFarland standard is obtained. The bacteria are diluted one to 20 in TSB and inoculated on the plates (1 μl using a Steers replicator).
as §1, with “Compounds of this invention can also be tested for in vitro antimicrobial” for “The antibacterial”, “activity” for “activity of the compounds of Formula IC was determined by”, “Jan. […]” for “January 1983 by the National Committee for Clinical Laboratory Standards, 771 East Lancaster Avenue, Villanova, Pa. 19084, USA.”, “(1μl” for “(1 μl”

`O=C(O)c1cn(C23CC(C2)C3)c2c(F)c(N3CCC(O)C3)c(F)cc2c1=O` (stereo not drawn) [No. 3, 7-(3-hydroxy-1-pyrrolidinyl)-1-(bicyclo[1.1.1]pent-1-yl)-1,4-dihydro-6,8-difluoro-4-oxo-3-quinolinecarboxylic acid] was tested, and the MIC (Klebsiella pneumoniae) was 0.5 µg/mL (≈ 1.33 µM), the MIC [1] was 0.25 µg/mL (≈ 0.664 µM) and the MIC (Pseudomonas aeruginosa; read-out: MINIMUM INHIBITORY CONCENTRATION, Cult No. 6676, MHA) was 2 µg/mL (≈ 5.31 µM). It also gave an MIC (Pseudomonas aeruginosa; read-out: MINIMUM INHIBITORY CONCENTRATION, Cult No. 9191, MHA) of 2 µg/mL (≈ 5.31 µM), an MIC (Pseudomonas aeruginosa; read-out: MINIMUM INHIBITORY CONCENTRATION, Cult No. 12120, MHA) of 1 µg/mL (≈ 2.66 µM) and an MIC (Citerobacter freundii) of 0.25 µg/mL (≈ 0.664 µM). The MIC [2] was 0.125 µg/mL (≈ 0.332 µM), the MIC (Escherichia coli; read-out: MINIMUM INHIBITORY CONCENTRATION, Cult No. 6674, MHA) was 0.25 µg/mL (≈ 0.664 µM) and the MIC (Escherichia coli; read-out: MINIMUM INHIBITORY CONCENTRATION, Cult No. 9451, MHA) was 0.25 µg/mL (≈ 0.664 µM). It also gave an MIC (Escherichia coli; read-out: MINIMUM INHIBITORY CONCENTRATION, Cult No. 9855, MHA) of 0.25 µg/mL (≈ 0.664 µM), an MIC (Escherichia coli; read-out: MINIMUM INHIBITORY CONCENTRATION, Cult No. 9952, MHA) of 0.125 µg/mL (≈ 0.332 µM) and an MIC (Proteus penneri) of 0.5 µg/mL (≈ 1.33 µM). The MIC (Streptococcus faecalis) was 1 µg/mL (≈ 2.66 µM), the MIC (Serratia marcescens) was 1 µg/mL (≈ 2.66 µM) and the MIC (Staphylococcus aureus; read-out: MINIMUM INHIBITORY CONCENTRATION, Cult No. 6685, MHA) was 0.06 µg/mL (≈ 0.159 µM). It also gave an MIC (Staphylococcus aureus; read-out: MINIMUM INHIBITORY CONCENTRATION, Cult No. 9213, MHA) of 0.125 µg/mL (≈ 0.332 µM), an MIC (Staphylococcus aureus; read-out: MINIMUM INHIBITORY CONCENTRATION, Cult No. 9218, MHA) of 0.125 µg/mL (≈ 0.332 µM) and an MIC (Staphylococcus aureus; read-out: MINIMUM INHIBITORY CONCENTRATION, Cult No. 9271, MHA) of 0.125 µg/mL (≈ 0.332 µM). The MIC (Streptococcus pyogenes) was 2 µg/mL (≈ 5.31 µM), the MIC (Streptococcus pneumoniae) was 1 µg/mL (≈ 2.66 µM) and the MIC (Enterobacter cloacae) was 0.25 µg/mL (≈ 0.664 µM).
